US9932300B2, “N,N′-diarylurea compounds and N,N′-diarylthiourea compounds as inhibitors of translation initiation” (President and Fellows of Harvard College, priority 2009, dated 2018)
Where “and” joins values, the source holds several entries; their conditions need not be identical. Equal values may be shown once.

Tested on: eIF2-GTP-Met-tRNAi ternary complex
Test: Ternary complex assay (dual luciferase, firefly/renilla ratio) in stable KLN-tTA/pBISA-DL(ATF-4) cells; HTS and hit confirmation
Type: cell-based, mouse
Parameters: Activity 10 uM / Activity 2.5 uM / Activity 5 uM: unit not given here
Conditions: confirmed hits of the screen (Table 5); for Activity 2.5 uM: compound at 2.5 uM; for Activity 10 uM: compound at 10 uM

`Cl.NC[CH2][Sn]([c]1ccccc1)([CH]1CCCCC1)[CH]1CCCCC1` [Compound 604861] was tested, and the “Activity 2.5 uM” value was 0.8 and the “Activity 10 uM” value was 4.82.
For `Cc1c2c(c(C)c3c1C(=O)c1cc4c(cc1C3=O)OCO4)OC(C)(C)O2` [Compound 604868], the “Activity 2.5 uM” value was 0.86 and the “Activity 10 uM” value was 5.36.
In the case of `O=C(N/N=C/c1ccccc1O)c1ccccc1.[Cu+2]` [Compound 607085], the “Activity 2.5 uM” value is reported as 2.21 and the “Activity 10 uM” value is reported as 3.55.
With `CN(C)c1ccc(N=Nc2cccc(C(=O)[O-])c2)cc1.CN(C)c1ccc(N=Nc2cccc(C(=O)[O-])c2)cc1.NC1CCCCC1N.O=[N+]([O-])O.[Pt+4]` [Compound 608144] the “Activity 2.5 uM” value was 3.82 and the “Activity 10 uM” value was 112.47.
With `C(=N\Nc1ccc2ccccc2n1)/c1ccccn1.CC(=O)[O-].CC(=O)[O-].[Zn+2]` [Compound 609211] the “Activity 2.5 uM” value was 5.68 and the “Activity 10 uM” value was 18.74.
For `Cn1cc(/C=C/C(=O)c2ccccc2[N+](=O)[O-])c2ccccc21` [Compound 609810], the “Activity 2.5 uM” value was 2.44 and the “Activity 10 uM” value was 4.69.
For `O=C(N/N=C/c1ccccc1[O-])c1ccccc1O.O=C(N/N=C/c1ccccc1[O-])c1ccccc1O.[Mn+2]` [Compound 610051], the “Activity 2.5 uM” value was 1.52 and the “Activity 10 uM” value was 9.23.
With `COC(=O)C1CCC(/C(C#N)=C2/CCC(C(=O)OC)[N-]2)=N1.COC(=O)C1CCC(/C(C#N)=C2/CCC(C(=O)OC)[N-]2)=N1.[Cu+2]` (stereo not drawn) [Compound 617738] the “Activity 2.5 uM” value was 1.05 and the “Activity 10 uM” value was 7.65.
In the case of `CN1C/C(=C\c2ccccc2)C(=O)/C(=C/c2ccccc2)C1.Cl` [Compound 618767], the “Activity 2.5 uM” value is reported as 0.7 and the “Activity 10 uM” value is reported as 6.58.
With `[Cl][Sn]([CH2][CH2][Sn]([Cl])([c]1ccccc1)[c]1ccccc1)([c]1ccccc1)[c]1ccccc1` [Compound 620291] the “Activity 2.5 uM” value was 8.39 and the “Activity 10 uM” value was 9.07.
For `CCC[CH2][Sn]([Cl])([CH2]CCC)[S]/C(C#N)=N/N=C/c1ccc(N(C)C)cc1` [Compound 620296], the “Activity 2.5 uM” value was 5.24 and the “Activity 10 uM” value was 3.13.
In the case of `C[n+]1[se]nc2ccccc21.Cc1ccc(S(=O)(=O)[O-])cc1` [Compound 620852], the “Activity 2.5 uM” value is reported as 4.79 and the “Activity 10 uM” value is reported as 16.94.
`Cc1c(C(=O)/C=C/c2ccccc2[N+](=O)[O-])[n+](=O)c2ccccc2n1[O-]` [Compound 621482] was tested, and the “Activity 2.5 uM” value was 1.17 and the “Activity 10 uM” value was 5.15.
In the case of `Cc1cc2c(cc1C)[n+]([O-])c(-c1nc3ccccc3s1)c(N)[n+]2[O-]` [Compound 621504], the “Activity 2.5 uM” value is reported as 14.68.
`COc1ccccc1NC(=S)N/N=C\c1cc(N=Nc2ccccc2)cc(OC)c1O` [Compound 621792] was tested, and the “Activity 2.5 uM” value was 1.27 and the “Activity 10 uM” value was 3.75.
`COc1cc(N=Nc2ccccc2)cc(/C=N/NC(=S)Nc2ccccc2)c1[O-].COc1cc(N=Nc2ccccc2)cc(/C=N/NC(=S)Nc2ccccc2)c1[O-].[Cu+2]` [Compound 621794] was tested, and the “Activity 2.5 uM” value was 9.24 and the “Activity 10 uM” value was 6.6.
In the case of `CSC(=Nc1ccccc1)/N=C(\SCc1ccccc1)N(C)C.I` [Compound 622579], the “Activity 10 uM” value is reported as 6.29 and 10.08.
`CN(C)C1=NC2=S(SC(Nc3ccccc3)=N2)S1` (stereo not drawn) [Compound 622683] was tested, and the “Activity 2.5 uM” value was 2.84 and the “Activity 10 uM” value was 3.82.
In the case of `BrC(Br)=C1C(=C(Br)Br)C(Br)C1Br` (stereo not drawn) [Compound 624851], the “Activity 2.5 uM” value is reported as 12.65.
For `CC(=O)[O-].[O-]c1c(Cl)cc(Cl)cc1/C=N/Nc1ccccn1.[Zn+2]` [Compound 625863], the “Activity 2.5 uM” value was 3.75 and the “Activity 10 uM” value was 3.72.
With `COc1ccc2c(c1)CCc1c(CO)c(COC(=O)NC(C)C)n(C)c1-2` [Compound 627459] the “Activity 2.5 uM” value was 1.68 and the “Activity 10 uM” value was 7.21.
With `CCC[CH2][Sn]1([CH2]CCC)[O]c2ccccc2NCC[N]1c1ccccc1O` [Compound 628577] the “Activity 2.5 uM” value was 1.45 and the “Activity 10 uM” value was 3.06.
For `Oc1ccccc1[N]1CCNc2ccccc2[O][Sn]1([c]1ccccc1)[c]1ccccc1` [Compound 628578], the “Activity 2.5 uM” value was 3.53.
With `C=[CH][Sn]([CH]=C)([S]c1cccc2cccnc12)[S]c1cccc2cccnc12` [Compound 628594] the “Activity 2.5 uM” value was 3.94.
In the case of `COc1cc[c]([Hg][n+]2c[nH]c3[nH]cnc(=S)c32)cc1` [Compound 631943], the “Activity 2.5 uM” value is reported as 6.31.
With `Nc1nc(=S)c2c(nc[n]2[Hg][c]2ccc([N+](=O)[O-])cc2)[nH]1` [Compound 631945] the “Activity 2.5 uM” value was 0.76 and the “Activity 10 uM” value was 5.72.
`Cc1cc[c]([Hg][S]C(=S)NNc2ccccc2)cc1` [Compound 631946] was tested, and the “Activity 2.5 uM” value was 13.13.
`COc1ccc(/C=N/Nc2nc(-c3cc4oc(=O)n(C)c4cc3Cl)cs2)cc1OC` [Compound 632134] was tested, and the “Activity 2.5 uM” value was 1.26 and the “Activity 10 uM” value was 3.5.
In the case of `[Cl][Ni][Cl].c1ccc(P(CCP(CCP(c2ccccc2)c2ccccc2)CCP(c2ccccc2)c2ccccc2)c2ccccc2)cc1` [Compound 633334], the “Activity 2.5 uM” value is reported as 4.12 and the “Activity 10 uM” value is reported as 28.14.
`F[P-](F)(F)(F)(F)F.[C-]#[O+].[C-]#[O+].[CH]1[CH][CH][CH][CH]1.[Mo].c1ccc(P(CC[As](c2ccccc2)c2ccccc2)CC[As](c2ccccc2)c2ccccc2)cc1` [Compound 633346] was tested, and the “Activity 2.5 uM” value was 8.05 and the “Activity 10 uM” value was 11.64.
With `F[C-](F)C(F)(F)C(F)(F)C(F)(F)C(F)(F)C(F)(F)C(F)(F)F.[CH]1[CH][CH][CH][CH]1.[Co+][I].c1ccc(P(CCP(c2ccccc2)c2ccccc2)c2ccccc2)cc1` [Compound 633992] the “Activity 2.5 uM” value was 13.09.
`C(=C\P(c1ccccc1)c1ccccc1)/P(c1ccccc1)c1ccccc1.F[C-](F)C(F)(F)C(F)(F)F.F[P-](F)(F)(F)(F)F.[CH]1[CH][CH][CH][CH]1.[Co+2]` [Compound 633995] was tested, and the “Activity 2.5 uM” value was 14.38 and the “Activity 10 uM” value was 11.56.
With `F[C-](C(F)(F)F)C(F)(F)F.[CH]1[CH][CH][CH][CH]1.[Co+][I].c1ccc(P(CCP(c2ccccc2)c2ccccc2)c2ccccc2)cc1` [Compound 633997] the “Activity 2.5 uM” value was 17.11 and the “Activity 10 uM” value was 12.56.
With `F[C-](F)F.[C-]#[O+].[CH]1[CH][CH][CH][CH]1.[Mo].c1ccc(P(CCP(c2ccccc2)c2ccccc2)c2ccccc2)cc1` [Compound 634000] the “Activity 2.5 uM” value was 1.1 and the “Activity 10 uM” value was 12.96.
For `F[C-](C(F)(F)F)C(F)(F)F.F[P-](F)(F)(F)(F)F.[CH]1[CH][CH][CH][CH]1.[Co+2].c1ccc(P(CCP(c2ccccc2)c2ccccc2)c2ccccc2)cc1` [Compound 634014], the “Activity 2.5 uM” value was 11.17 and the “Activity 10 uM” value was 12.92.
With `C[Si](C)(C)c1ccc(CC2(Cc3ccc([Si](C)(C)C)cc3)CCNC2)cc1` [Compound 634157] the “Activity 2.5 uM” value was 0.8 and the “Activity 10 uM” value was 3.99.
`F[P-](F)(F)(F)(F)F.[Cl][Co+].c1ccc(P(CCP(CCP(c2ccccc2)c2ccccc2)CCP(c2ccccc2)c2ccccc2)c2ccccc2)cc1` [Compound 634838] was tested, and the “Activity 2.5 uM” value was 13.01 and the “Activity 10 uM” value was 30.9.
With `C[C-]=O.[C-]#[O+].[C-]#[O+].[Mn].c1ccc(P(CCP(c2ccccc2)c2ccccc2)CCP(c2ccccc2)c2ccccc2)cc1` [Compound 634842] the “Activity 2.5 uM” value was 1.71 and the “Activity 10 uM” value was 8.37.
`c1ccc(P(CC[As](c2ccccc2)c2ccccc2)CC[As](c2ccccc2)c2ccccc2)cc1` [Compound 635022] was tested, and the “Activity 2.5 uM” value was 0.96 and the “Activity 10 uM” value was 4.8.
For `[Pt].c1ccc(P(CCP(CCP(c2ccccc2)c2ccccc2)CCP(c2ccccc2)c2ccccc2)c2ccccc2)cc1` [Compound 635030], the “Activity 2.5 uM” value was 1.68 and the “Activity 10 uM” value was 71.33.
For `[C-]#[O+].[C-]#[O+].[C-]#[O+].[C-]#[O+].[C-]#[O+].[CH]1[CH][CH][CH][CH]1.[CH]1[CH][CH][CH][CH]1.[Mo].[Mo].c1ccc(P(CCP(c2ccccc2)c2ccccc2)c2ccccc2)cc1` [Compound 635072], the “Activity 2.5 uM” value was 1.59 and the “Activity 10 uM” value was 5.58.
In the case of `CCOC(=O)/C(=C\c1ccc(N(C)C)cc1)[Se]c1ccccc1` [Compound 638113], the “Activity 2.5 uM” value is reported as 1.87 and the “Activity 10 uM” value is reported as 3.17.
`C/C(=N/O)c1ccc2c(c1)C(=NO)c1cc(/C(C)=N/O)ccc1-2` [Compound 642485] was tested, and the “Activity 2.5 uM” value was 1.93 and the “Activity 10 uM” value was 3.59.
In the case of `CCOC(=O)C(C(=O)OCC)c1ccc([N+](=O)[O-])o1` [Compound 643139], the “Activity 10 uM” value is reported as 7.511.
For `COc1ccc(C2=NN(C(C)=O)c3nc4ccccc4nc3O2)cc1` [Compound 643713], the “Activity 2.5 uM” value was 2.72 and the “Activity 10 uM” value was 4.87.
For `CC1=NN(c2ccccc2)C(=O)C1=C1SCCCS1` [Compound 643762], the “Activity 2.5 uM” value was 1.99 and the “Activity 10 uM” value was 3.47.
`CCC[CH2][Sn]([CH2]CCC)([CH2]CCC)[O]c1cccccc1=O` [Compound 644907] was tested, and the “Activity 2.5 uM” value was 4.97.
For `Nc1nc2c(N)cc(C(F)(F)F)cc2nc1-c1ccccc1` [Compound 645170], the “Activity 2.5 uM” value was 3 and the “Activity 10 uM” value was 5.1.
In the case of `CCCCCCN(CCCCCC)C(=S)N/N=C(\C)c1ccccn1` [Compound 647131], the “Activity 2.5 uM” value is reported as 1.96 and the “Activity 10 uM” value is reported as 17.42.
With `CC(=O)Nc1ccc(C(O)/C(=N/N)c2nc3ccc(Cl)cc3[nH]c2=O)cc1` (stereo not drawn) [Compound 647590] the “Activity 2.5 uM” value was 2.31 and the “Activity 10 uM” value was 3.22.
For `CCCN(CCC)c1c([N+](=O)[O-])cc(S(N)(=O)=O)cc1[N+](=O)[O-]` [Compound 648479], the “Activity 2.5 uM” value was 2.55 and the “Activity 10 uM” value was 3.37.
With `Cc1ccc(C2C(Cl)C(=O)N2n2cnc3ccccc3c2=O)cc1` (stereo not drawn) [Compound 650027] the “Activity 2.5 uM” value was 4.2 and the “Activity 10 uM” value was 4.42.
`COc1ccc(/C=C(\C2=NC(=O)CS2)c2nc3ccccc3[nH]2)cc1` [Compound 652047] was tested, and the “Activity 2.5 uM” value was 1.15 and the “Activity 10 uM” value was 3.51.
For `COc1ccc2c3ccc4c(c3n(C)c2c1)C(=O)C=CC4=O` [Compound 652257], the “Activity 2.5 uM” value was 3.09 and the “Activity 10 uM” value was 8.74.
For `O=c1c([Se]c2coc3ccccc3c2=O)coc2ccccc12` [Compound 652531], the “Activity 2.5 uM” value was 0.71 and the “Activity 10 uM” value was 12.9.
In the case of `O=[N+]([O-])[O-].O=[N+]([O-])[O-].[Au].[Au].c1ccc([P-]c2ccccc2)cc1.c1ccc([P-]c2ccccc2)cc1` [Compound 652594], the “Activity 2.5 uM” value is reported as 1.46 and the “Activity 10 uM” value is reported as 14.89.
